Reference: article PMC6934184, “Selective DNA-PKcs inhibition extends the therapeutic index of localized radiotherapy and chemotherapy” (The Journal of Clinical Investigation, 2019)

Tested on: NHEJ-mediated DSB repair in HEK293T cells
Experiment: NHEJ plasmid repair assay
Format: cell-based, Human
Conditions: 1 μM; 24 hours; AfeI or ScaI linearized plasmid
Protocol: The ability of NU5455 to impair the nonhomologous end joining (NHEJ) ability of cells was assessed using a modified version of a DNA repair assay developed by Nagel et al. ([52]), which measures the repair of a plasmid encoding blue fluorescent protein (BFP) and GFP linearized by either an ScaI or an AfeI restriction digestion. Full experimental details are given in Supplemental Methods.
Membranes were then washed in TBST and incubated with HRP-conjugated goat anti-mouse or anti-rabbit antibodies (P0447 and P0448 respectively, Dako) in 5% (w/v) milk/TBST at room temperature for 1-2 hours. Conjugates were detected using Clarity Western ECL Substrate (BioRad) and chemiluminescence imaged using the Fuji LAS-3000 Luminescent Image Analyzer System (Fujifilm).
Densitometry analysis was performed using AIDA Image Analyzer software (Raytest). The intensity of all bands was determined following a background subtraction, and the level of pDNA-PKcs stimulation determined by subtracting basal unstimulated pDNA-PKcs Ser2056 levels. pDNA-PKcs Ser2056 band intensity was calculated relative to total DNA-PKcs band intensity, and is given as percentage expression relative to irradiated, DMSO-treated cells. […]
violet laser with 440/50 emission filter to detect blue fluorescence using the VL1 channel. […]
Data were analyzed by FCS Express 6 Flow Research Edition (De Novo Software). […]

With `CN(C(=O)CN1CCOCC1)c1ccc2sc3c(-c4cccc5c(=O)cc(N6CC7CCC(C6)O7)oc45)cccc3c2c1` [NU5455] the “repair of DNA-DSBs (NHEJ plasmid repair)” value was “inhibit the repair of DNA-DSBs”.
